Results taken from patent US20250034110A1, “LPAR1 ANTAGONISTS AND USES THEREOF” (Pipeline Therapeutics, Inc., priority 2021, published 2025).
Read-outs that look alike come from different tables or passages of the source.

Target: human LPAR1 (Homo sapiens, UniProt Q92633)
Test: In vitro functional assay of lysophosphatidic acid receptor 1 activity (calcium flux)
Type: cell-based
[1] = B103 cells stably expressing human LPAR1, calcium flux (Fluo-4 NW) after lysophosphatidic acid (18:1) at EC80, 100 pM to 10 μM, read-out: LPAR1 IC50

Sequence of human LPAR1 (Q92633 whole entry): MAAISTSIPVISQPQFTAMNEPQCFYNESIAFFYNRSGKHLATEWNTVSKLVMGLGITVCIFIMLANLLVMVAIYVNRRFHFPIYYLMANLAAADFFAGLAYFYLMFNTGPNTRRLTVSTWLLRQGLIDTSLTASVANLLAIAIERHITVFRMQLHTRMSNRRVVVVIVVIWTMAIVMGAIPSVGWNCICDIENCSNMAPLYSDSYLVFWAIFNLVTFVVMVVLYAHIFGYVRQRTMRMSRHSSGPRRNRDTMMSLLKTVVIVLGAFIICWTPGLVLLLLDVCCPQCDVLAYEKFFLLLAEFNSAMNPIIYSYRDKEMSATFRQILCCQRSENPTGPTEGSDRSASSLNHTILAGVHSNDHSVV

SMILES | IC50 [1] [nM] | IC50 (LPAR1 IC50) [nM]
Cc1ccc(NC(=O)N(c2ccccc2C(C)C)[C@H]2CC[C@@H](C(=O)O)C2)c(OC(F)F)n1 [Example 301] | 10 to 100 | 
CC(C)c1ccccc1N(C(=O)Nc1cc(F)c(F)cc1OC(F)F)[C@H]1C[C@H](C(=O)O)C1 [Example 164, trans-3-(3-(2-(difluoromethoxy)-4,5-difluorophenyl)-1-(2-isopropylphenyl)ureido)cyclobutane-1-carboxylic acid] | 10 to 100 | 
Cc1ccc(NC(=O)N(c2ccccc2C(C)C)C2CC(C=O)C2)c(OC(F)F)n1 (stereo not drawn) [Example 194, 3-(2-(difluoromethoxy)-6-methylpyridin-3-yl)-1-(3-formylcyclobutyl)-1-(2-isopropylphenyl)urea] | 100 to 1000 | 
Cc1ccc(NC(=O)N(C[C@H]2CC[C@@H](C(=O)O)CC2)c2ccccc2C(C)C)c(OC(F)F)n1 [Example 172] | 10 to 100 | 
Cc1ccc(NC(=O)N(c2ccccc2C(C)C)[C@H]2CC[C@H](c3cccnc3)CC2)c(OC(F)F)n1 [Example 261, 3-(2-(difluoromethoxy)-6-methylpyridin-3-yl)-1-(2-isopropylphenyl)-1-((1r,4r)-4-(pyridin-3-yl)cyclohexyl)urea] | 100 to 1000 | 
CC(=O)N1CCC(N(C(=O)Nc2ncc(F)cc2Br)c2ccccc2C(C)C)CC1 [Example 137] |  | > 1000
Cc1ccc(NC(=O)N(c2ccccc2C(C)C)[C@H]2CC[C@H](C(=O)O)CC2)c(OCC(F)F)n1 [Example 335, (1r,4r)-4-(3-(2-(2,2-difluoroethoxy)-6-methylpyridin-3-yl)-1-(2-isopropylphenyl)ureido)cyclohexane-1-carboxylic acid] | 10 to 100 | 
COc1ccc(NC(=O)N(c2ccccc2C(C)C)[C@H]2CCC[C@@H](C(=O)O)C2)c(OC(F)F)n1 [Example 147] | < 10 | 
CC(=O)N(C(C)=O)[C@H]1CC[C@H](N(C(=O)Nc2ccc(C)nc2OC(F)F)c2ccccc2C(C)C)CC1 [Example 265, N-acetyl-N-((1r,4r)-4-(3-(2-(difluoromethoxy)-6-methylpyridin-3-yl)-1-(2-isopropylphenyl)ureido)-cyclohexyl)acetamide] | > 1000 | 
COc1ccc(NC(=O)N(c2cccc(C)c2C)C2CCN(C(C)=O)CC2)c(OC(F)F)n1 [Example 42, 1-(1-acetylpiperidin-4-yl)-3-(2-(difluoromethoxy)-6-methoxypyridin-3-yl)-1-(2,3-dimethylphenyl)urea] |  | 100 to 1000
COc1ccc(NC(=O)N(c2ccccc2C(C)C)[C@H]2C[C@@H](C(=O)O)C2)c(OC(F)F)n1 [Example 152] | 100 to 1000 | 
CNC(=O)N1CCC(N(C(=O)Nc2ccc(OC)nc2OC(F)F)c2ccccc2C(C)C)CC1 [Example 64, 4-(3-(2-(difluoromethoxy)-6-methoxypyridin-3-yl)-1-(2-isopropylphenyl)ureido)-N-methylpiperidine-1-carboxamide] |  | 10 to 100
COc1ccc(NC(=O)N(c2ccccc2C(C)C)[C@@H]2C[C@@H]3CC[C@H]2N3C(C)=O)c(OC(F)F)n1 (racemic) [Example 59, rac-1-((1R,2R,4S)-7-acetyl-7-azabicyclo[2.2.1]heptan-2-yl)-3-(2-(difluoromethoxy)-6-methoxypyridin-3-yl)-1-(2-isopropylphenyl)urea] | 100 to 1000 | 
Cc1ccc(NC(=O)N(c2ccccc2C(C)C)[C@H]2C[C@@H](C#N)C2)c(OC(F)F)n1 [Example 26, 1-((1s,3s)-3-cyanocyclobutyl)-3-(2-(difluoromethoxy)-6-methylpyridin-3-yl)-1-(2-isopropylphenyl)urea] | 100 to 1000 | 
COc1ccc(NC(=O)N(c2ccccc2C(C)C)C2CC3(CC(C(=O)O)C3)C2)c(OC(F)F)n1 (stereo not drawn) [Example 233] | 10 to 100 | 
CC(=O)N1CCC(N(C(=O)Nc2ccc(OC(F)F)nc2Cl)c2ccccc2C(C)C)CC1 [Example 108] |  | 100 to 1000
COc1ccc(NC(=O)N(c2ccccc2C(C)C)[C@H]2C[C@@H](CC(=O)O)C2)c(OCC(F)F)n1 [Example 332] | 10 to 100 | 
Cc1ccc(NC(=O)N(c2ccccc2C(C)C)C2CN(C(=O)CC#N)C2)c(OC(F)F)n1 [Example 81, 1-(1-(2-cyanoacetyl)azetidin-3-yl)-3-(2-(difluoromethoxy)-6-methylpyridin-3-yl)-1-(2-isopropylphenyl)urea] | 10 to 100 | 
CC(=O)N1CCC(N(C(=O)Nc2ccc(C)nc2OC(F)F)c2cnccc2C(C)C)CC1 [Example 36, 1-(1-acetylpiperidin-4-yl)-3-(2-(difluoromethoxy)-6-methylpyridin-3-yl)-1-(4-isopropylpyridin-3-yl)urea] |  | 100 to 1000
COc1ccc(NC(=O)N(c2ccccc2C(C)C)C2CCC(=O)CC2)c(OC(F)F)n1 [Example 276, 3-(2-(difluoromethoxy)-6-methoxypyridin-3-yl)-1-(2-isopropylphenyl)-1-(4-oxocyclohexyl)urea] | 100 to 1000 | 
COc1ccc(NC(=O)N(c2ccccc2C(C)C)C2CC(CC(=O)O)C2)c(OC(F)F)n1 (stereo not drawn) [Example 148] | < 10 | 

SMILES | IC50 [1] [nM] | IC50 (LPAR1 IC50) [nM]
Cc1ccc(NC(=O)N(c2ccccc2C(C)C)[C@H]2C[C@H](OCc3ccccc3)C2)c(OC(F)F)n1 [Example 23, 1-((1r,3r)-3-(benzyloxy)cyclobutyl)-3-(2-(difluoromethoxy)-6-methylpyridin-3-yl)-1-(2-isopropylphenyl)urea] | 100 to 1000 | 
COc1ccc(NC(=O)N(c2ccccc2C(C)C)C2CN(C(C)=O)C2)c(OC(F)F)n1 [Example 41, 1-(1-acetylazetidin-3-yl)-3-(2-(difluoromethoxy)-6-methoxypyridin-3-yl)-1-(2-isopropylphenyl)urea] | 100 to 1000 | 
Cc1ccc(NC(=O)N(c2ccccc2C(C)C)[C@H]2CC[C@@](C)(C(=O)O)CC2)c(OC(F)F)n1 [Example 308] | 100 to 1000 | 
COc1ccc(NC(=O)N(c2ccccc2C(C)C)C2C3CC2CN(C(C)=O)C3)c(OC(F)F)n1 (stereo not drawn) [Example 53, 1-(3-acetyl-3-azabicyclo[3.1.1]heptan-6-yl)-3-(2-(difluoromethoxy)-6-methoxypyridin-3-yl)-1-(2-isopropylphenyl)urea] |  | 100 to 1000
COC(=O)N1CCC(N(C(=O)Nc2ccc(OC)nc2OC(F)F)c2ccccc2C(C)C)CC1 [Example 63, methyl 4-(3-(2-(difluoromethoxy)-6-methoxypyridin-3-yl)-1-(2-isopropylphenyl)ureido)piperidine-1-carboxylate] |  | 10 to 100
Cc1ccc(NC(=O)N(c2ccccc2C(C)C)[C@H]2[C@@H]3CN(C(=O)OC(C)(C)C)C[C@@H]32)c(OC(F)F)n1 [Example 9, tert-butyl (1R,5S,6s)-6-(3-(2-(difluoromethoxy)-6-methylpyridin-3-yl)-1-(2-isopropylphenyl)ureido)-3-azabicyclo[3.1.0]hexane-3-carboxylate] |  | > 1000
Cc1ccc(NC(=O)N(CC23CC(C(=O)O)(C2)C3)c2ccccc2C(C)C)c(OC(F)F)n1 [Example 173] | 10 to 100 | 
COc1ccc(NC(=O)N(c2ccccc2C(C)C)[C@H]2CC[C@@H](S(C)(=O)=O)CC2)c(OC(F)F)n1 [Example 257, 3-(2-(difluoromethoxy)-6-methoxypyridin-3-yl)-1-(2-isopropylphenyl)-1-((1s,4s)-4-(methylsulfonyl)cyclohexyl)urea] | < 10 | 
CC(=O)N1CCC(N(C(=O)Nc2ccc(C)nc2OC(F)F)c2ccccc2C(F)F)CC1 [Example 34, 1-(1-acetylpiperidin-4-yl)-3-(2-(difluoromethoxy)-6-methylpyridin-3-yl)-1-(2-(difluoromethyl)phenyl)urea] |  | > 1000
Cc1ccc(NC(=O)N(c2ccccc2C(C)C)[C@H]2CCN(C(=O)Cn3nccn3)C2)c(OC(F)F)n1 [Example 83, (S)-1-(1-(2-(2H-1,2,3-triazol-2-yl)acetyl)pyrrolidin-3-yl)-3-(2-(difluoromethoxy)-6-methylpyridin-3-yl)-1-(2-isopropylphenyl)urea] | 100 to 1000 | 
Cc1ccc(NC(=O)N(c2ccccc2C(C)C)C2CCN(C(=O)Cn3nccn3)CC2)c(OC(F)F)n1 [Example 79, 1-(1-(2-(2H-1,2,3-triazol-2-yl)acetyl)piperidin-4-yl)-3-(2-(difluoromethoxy)-6-methylpyridin-3-yl)-1-(2-isopropylphenyl)urea] |  | < 10
Cc1ccc(NC(=O)N(c2ccccc2C(C)C)C2(C)COC2)c(OC(F)F)n1 [Example 3, 3-(2-(difluoromethoxy)-6-methylpyridin-3-yl)-1-(2-isopropylphenyl)-1-(3-methyloxetan-3-yl)urea] | 100 to 1000 | 
CC(=O)N1CC2(CC(N(C(=O)Nc3ncc(Br)cc3OC(F)F)c3ccccc3C(C)C)C2)C1 [Example 123, 1-(2-acetyl-2-azaspiro[3.3]heptan-6-yl)-3-(5-bromo-3-(difluoromethoxy)pyridin-2-yl)-1-(2-isopropylphenyl)urea] | 100 to 1000 | 
Cc1ccc(NC(=O)N(c2ccccc2C(C)C)C2CC(=O)C2)c(OC(F)F)n1 [Example 195] | 10 to 100 | 
Cc1ccc(NC(=O)N(C[C@H]2CC[C@H](C(=O)O)CC2)c2ccccc2C(C)C)c(OC(F)F)n1 [Example 171] | 10 to 100 | 
C#CCCS(=O)(=O)NC(=O)[C@H]1CC[C@H](N(C(=O)Nc2ccc(OC)nc2OC(F)F)c2ccccc2C(C)C)CC1 [Example 280] | < 10 | 
CC(=O)N1CCC(N(C(=O)Nc2cncc(F)c2)c2ccccc2C(C)C)CC1 [Example 246] |  | > 1000
CC(=O)N1CCC(N(C(=O)Nc2cc(F)c(C)nc2OC(F)F)c2ccccc2C(C)C)CC1 [Example 218, 1-(1-acetylpiperidin-4-yl)-3-(2-(difluoromethoxy)-5-fluoro-6-methylpyridin-3-yl)-1-(2-isopropylphenyl)urea] |  | 10 to 100
CC(C)c1ccccc1N(C(=O)Nc1ncc(Cl)cc1OC(F)F)C1CC(CC(=O)O)C1 (stereo not drawn) [Example 175, 2-(3-(3-(5-chloro-3-(difluoromethoxy)pyridin-2-yl)-1-(2-isopropylphenyl)ureido)cyclobutyl)acetic acid] | < 10 | 
Cc1ccc(NC(=O)N(c2ccccc2C(C)C)C2CNC(=O)C2)c(OC(F)F)n1 (stereo not drawn) [Example 30, 3-(2-(difluoromethoxy)-6-methylpyridin-3-yl)-1-(2-isopropylphenyl)-1-(5-oxopyrrolidin-3-yl)urea] | 100 to 1000 | 
Cc1ccc(NC(=O)N(c2ccccc2C(C)C)[C@H]2CCC[C@@H](C(=O)O)C2)c(OC(F)F)n1 [Example 285] | < 10 | 
